Where “and” joins values, the source holds several entries; their conditions need not be identical. Equal entries are not always repeated.

The target of the test is T1, ARF6 (Homo sapiens, UniProt P62330).
T1 construct: expressed in transfected cells; host or cells: HEK293SL
The experiment in a line: GST-GGA3-PBD pull-down of AT1R-mediated HA-ARF6 activation. The format is cell-based. As to conditions: for ARF6-GTP/ARF6, GST-GGA3-PBD pull down: Comp 21 50 μM, individual experiments. On the procedure:
HEK293 cells were transfected with a BRET sensor that monitors the interaction between β-arrestins and the β-appendage of AP-2 (Fig. 2a)[26],[33]. […] The small GTPase ARF6, which binds β-arrestins and facilitates AP-2 and clathrin recruitment at the PM, is also necessary for CCPs initiation and receptor internalization. Therefore, ARF6 activity was assessed using the protein-3 binding domain (PBD) of the golgi-associated, gamma adaptin ear-containing, ARF-binding protein 3 (GGA3) fused to GST (GST-GGA3-PBD) in a pull-down assay, which allows the detection of GTP-bound ARF6 in cells[34] (Fig. 2b). […] This inhibition was selective for ARF6 since 21 had no effect on AT1R-dependent ARF1 activation (Supplementary Fig. 2a). We also devised a BRET assay to quantitatively assess 21’s action on ARF activity. The ARF BRET assay was created using the GGA3-PBD fused to RlucII (GGA3-PBD-RlucII) and the rGFP anchored at the PM (rGFP-CAAX) (Supplementary Fig. 3a). […] 21 blocked ARF’s activation by 40–60% following AT1R stimulation (Fig. 2c).
Activation of ARF1, ARF6, Ras, and Rho were assessed by using GST pull-down assays. HEK293SL cells were transiently transfected with 3 µg AT1R-flag only (Ras and Rho) or along with 500 ng HA-ARF6 (ARF6) or HA-ARF1 (ARF1). Forty-eight hours later, the HEK293 or MDA-MB-231 cells were serum-starved for 4 h with DMEM containing 20 mM HEPES then pretreated with DMSO or Rasarfin (50 µM) for 30 min. Cells were then stimulated with 1 µM AngII or 100 ng/ml EGF for 0 and 2 min. Cells were then washed once with ice-cold PBS and lysed for 30 min at 4 °C in 300 µl of lysis buffer (pH 7.5, 50 mM Tris-HCl, 140 mM NaCl, 5 mM MgCl2, 10% glycerol (v/v), 1% Nonidet P-40 (v/v), 1 mM dithiothreitol) supplemented with protease inhibitors (1 mM phenylmethyl-sulfonyl fluoride (PMSF), 10 µg/ml leupeptin, 5 µg/ml aprotinin, 1 µg/ml pepstatin A) and phosphatase inhibitors (20 mM NaF, 0.025 mM pervanadate). […] ImageLab 5.2 software was used to quantify the digital blots as fold of the amount of pulled down protein over total protein. […]

T1 sequence (P62330 whole entry, species assumed): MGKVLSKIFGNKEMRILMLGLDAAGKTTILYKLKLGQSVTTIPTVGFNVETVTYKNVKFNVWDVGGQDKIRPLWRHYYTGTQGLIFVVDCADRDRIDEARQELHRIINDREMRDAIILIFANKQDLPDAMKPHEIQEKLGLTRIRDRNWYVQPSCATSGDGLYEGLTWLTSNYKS

Turning to `CC(C)C(=O)N1CCN(c2ccc(NC(=O)c3cc4ccccc4o3)cc2Cl)CC1` [Compound 21], for the setting “50 μM, read-out: inhibition of ARF6-GTP (AngII-stimulated cells, pull-down)”, the inhibition (as a rule, the percentage by which the read-out fell short of the control) at 50 µM was greater than 70%. For the same compound, the “ARF6-GTP/ARF6, GST-GGA3-PBD pull down” value is 0.1415 and 0.1921 and 0.09307 and 0.2014 (AngII); 0.0894 and 0.1773 and 0.03131 and 0.1335 (Control (no AngII)).

The values above are taken from paper PMC8333425, “Discovery of a dual Ras and ARF6 inhibitor from a GPCR endocytosis screen” (Nature Communications, 2021).
